Test results taken from PubChem BioAssay AID1259408 (Genetic Toxicology Data Bank (GENE-TOX), 2018).
Activity calls are given as the source filed them. The rule behind the calls is not given here.

Tested on: GENE-TOX genotoxicity assays, various organisms and cells
Experiment: GENE-TOX mutagenicity studies
[1] = Species/Cell Type: Salmonella typhimurium (one or more of the five standard strains: TA98, TA100, TA1535, TA1537, and TA1538), Assay Type: Histidine reverse gene mutation, Ames assay, Assay Code: SALT, Evaluation Type: Evaluation A (Pre-1980)
[2] = Species/Cell Type: Salmonella typhimurium (one or more of the five standard strains: TA98, TA100, TA1535, TA1537, and TA1538), Assay Type: Histidine reverse gene mutation, Ames assay, Assay Code: SAL+*, Activation: With metabolic activation, Evaluation Type: Evaluation A (Pre-1980)
[3] = Species/Cell Type: Nonhuman, Assay Type: Sister-chromatid exchange (SCE) in vitro, Assay Code: SC2+D, Dose Response: With dose response, Evaluation Type: Evaluation B (Post-1980)
[4] = Species/Cell Type: Salmonella typhimurium (one or more of the five standard strains: TA98, TA100, TA1535, TA1537, and TA1538), Assay Type: Histidine reverse gene mutation, Ames assay, Assay Code: SAL+, Evaluation Type: Evaluation A (Pre-1980)

**Q.** What does the source list for `C=Cc1ccccc1C`?
**A.** mutagenic call (Species/Cell Type: Human lymphocytes, Assay Type: Sister-chromatid exchange (SCE) in vitro, Assay Code: SCL+D, Dose Response: With dose response, Evaluation Type: Evaluation B (Post-1980)): active; positive; mutagenic call (Species/Cell Type: Human, Assay Type: Sister-chromatid exchange (SCE) in vitro, Assay Code: SC1+D, Dose Response: With dose response, Evaluation Type: Evaluation B (Post-1980)): active; positive

**Q.** With `c1cc2ccc3ccc4c5c(c6c(c1CCC6)c2c35)CCC4` as the compound, how does the mutagenic call [1] read?
**A.** no conclusion

**Q.** How did the mutagenic call [2] turn out when `O=C1c2cc(O)ccc2-c2ccc(O)c3cccc1c23` was run?
**A.** active; positive

**Q.** How did the mutagenic call [2] turn out when `Cc1cc(O)c2c(c1)C(=O)c1cc(OC3O[C@@H](C)[C@H](O)[C@@H](O)[C@H]3O)cc(O)c1C2=O` (stereo partly drawn) was run?
**A.** active; positive

**Q.** What does the source list for `C=C(C)[C@H]1O[C@H]2CC[C@@]3(C)[C@@](O)(CC[C@H]4[C@@H]5OC(C)(C)[C@H]6C[C@@H]7C(=C)Cc8c(Cl)cc9[nH]c(c5c9c8[C@@]76O)[C@@]43C)[C@]23O[C@@H]3[C@H]1O`?
**A.** mutagenic call (Species/Cell Type: Saccharomyces cerevisiae, Assay Type: Mitotic recombination or gene conversion, Assay Code: YEH-, Evaluation Type: Evaluation A (Pre-1980)): inactive; negative; mutagenic call [1]: no conclusion

**Q.** For `Nc1ccc(N=Nc2cccc(N=Nc3ccc(N)cc3N)c2)c(N)c1`, which mutagenic call (Species/Cell Type: Bacillus subtilis (H17 vs M45), Assay Type: Rec-assay, spot test, DNA effects (bacterial DNA repair), Assay Code: REWT, Evaluation Type: Evaluation A (Pre-1980)) is on record?
**A.** no conclusion

**Q.** `C1=CC[C@@H](c2cccnc2)NC1` was tested. Which mutagenic call [3] did it give?
**A.** active; positive

**Q.** With `CCNCCNc1ccc(CO)c2sc3cc(Cl)ccc3c(=O)c12` as the compound, how does the mutagenic call (Species/Cell Type: Mouse lymphoma (L5178Y) cells, Assay Type: Forward gene mutation at the thymidine kinase (TK) locus, chromosome aberrations, Assay Code: L51+, Evaluation Type: Evaluation A (Pre-1980)) read?
**A.** active; positive

**Q.** Which mutagenic call (Species/Cell Type: Allium cepa, Assay Type: Chromosome aberrations, Assay Code: ALC-, Evaluation Type: Evaluation A (Pre-1980)) does the source give for `COC12C(=O)N(C)C(=O)N(C)C1(OC)N(C)C(=O)N2C` (stereo not drawn) here?
**A.** inactive; negative

**Q.** Which mutagenic call (Species/Cell Type: Mammalian polychromatic erythrocytes, Assay Type: Micronucleus test, chromosome aberrations, Assay Code: MNT-, Evaluation Type: Evaluation B (Post-1980)) does the source give for `O=C1C(c2[nH]c3ccccc3c2O)=Nc2ccccc21` here?
**A.** inactive; negative

**Q.** What does the source list for `CC(=O)Nc1ccc(/C=C/c2ccccc2)cc1`?
**A.** mutagenic call (Species/Cell Type: Human diploid fibroblasts, Assay Type: Unscheduled DNA synthesis (UDS) in vitro, DNA effects, Assay Code: UDH-, Evaluation Type: Evaluation A (Pre-1980)): inactive; negative; mutagenic call [2]: active; positive

**Q.** How did the mutagenic call (Species/Cell Type: Mouse (C3H/10T1/2) cells, Assay Type: Cell transformation, Assay Code: CTH-, Evaluation Type: Evaluation A (Pre-1980)) turn out when `[N-]=[N+]=Nc1ccc2c(c1)Cc1ccccc1-2` was run?
**A.** inactive; negative

**Q.** For `O=C1c2ccccc2C(=O)N1CC1CO1` (stereo not drawn), which mutagenic call (Species/Cell Type: Chinese hamster ovary (CHO) cells, Assay Type: Forward gene mutation at the HPRT locus, Assay Code: CHO+, Evaluation Type: Evaluation B (Post-1980)) is on record?
**A.** active; positive

**Q.** Which mutagenic call (Species/Cell Type: Human, Assay Type: Sister-chromatid exchange (SCE) in vitro, Assay Code: SC1+D, Dose Response: With dose response, Evaluation Type: Evaluation A (Pre-1980)) does the source give for `CCCCCCCCCCCCCCCC(=O)OC/C=C(C)/C=C/C=C(C)/C=C/C1=C(C)CCCC1(C)C` here?
**A.** active; positive

**Q.** With `CC(C(=O)O)c1ccc(-c2ccccc2)c(F)c1` (stereo not drawn) as the compound, how does the mutagenic call (Species/Cell Type: Human lymphocytes, Assay Type: Sister-chromatid exchange (SCE) in vivo, Assay Code: SCY+, Evaluation Type: Evaluation B (Post-1980)) read?
**A.** active; positive

**Q.** What does the source list for `ClCC(Br)CBr` (stereo not drawn)?
**A.** mutagenic call (Species/Cell Type: Escherichia coli polA (W3119 vs P3478), Assay Type: Rec-assay, DNA effects (bacterial DNA repair), Assay Code: RE1+, Evaluation Type: Evaluation A (Pre-1980)): active; positive; mutagenic call (Species/Cell Type: Human, Sex: Male, Assay Type: Sperm morphology, Assay Code: SPH+, Evaluation Type: Evaluation A (Pre-1980)): active; positive; call (Species/Cell Type: Nonhuman, Assay Type: In vivo carcinogenicity studies, Assay Code: CCG+, Evaluation Type: Evaluation A (Pre-1980)): active; positive; mutagenic call [3]: active; positive; mutagenic call [4]: active; positive; mutagenic call (Species/Cell Type: Salmonella typhimurium, Assay Type: Forward and reverse gene mutation, body fluid assay, Assay Code: BFU-, Evaluation Type: Evaluation A (Pre-1980)): inactive; negative

**Q.** For `C=C=O`, which mutagenic call [4] is on record?
**A.** active; positive

**Q.** And the mutagenic call (Species/Cell Type: Tradescantia species, Assay Type: Chromosome aberrations, Assay Code: TRC+, Evaluation Type: Evaluation A (Pre-1980))?
**A.** active; positive

**Q.** Which mutagenic call (Species/Cell Type: Drosophila melanogaster, Assay Type: Sex-linked recessive lethal gene mutation, Assay Code: SRL+, Evaluation Type: Evaluation A (Pre-1980)) does the source give for `CC(CCC(C)OS(C)(=O)=O)OS(C)(=O)=O` (stereo not drawn) here?
**A.** active; positive

**Q.** `COc1cc2c(c3oc(=O)c4c(c13)CCC4=O)[C@@H]1C(Cl)C(O)O[C@@H]1O2` (stereo partly drawn) was tested. Which mutagenic call [1] did it give?
**A.** no conclusion
